One test addresses T1, CCK-1 receptor (Homo sapiens, UniProt P32238).
T1 construct: expressed in transfected cells; host or cells: CHO-K1
T1 sequence (P32238 1-428): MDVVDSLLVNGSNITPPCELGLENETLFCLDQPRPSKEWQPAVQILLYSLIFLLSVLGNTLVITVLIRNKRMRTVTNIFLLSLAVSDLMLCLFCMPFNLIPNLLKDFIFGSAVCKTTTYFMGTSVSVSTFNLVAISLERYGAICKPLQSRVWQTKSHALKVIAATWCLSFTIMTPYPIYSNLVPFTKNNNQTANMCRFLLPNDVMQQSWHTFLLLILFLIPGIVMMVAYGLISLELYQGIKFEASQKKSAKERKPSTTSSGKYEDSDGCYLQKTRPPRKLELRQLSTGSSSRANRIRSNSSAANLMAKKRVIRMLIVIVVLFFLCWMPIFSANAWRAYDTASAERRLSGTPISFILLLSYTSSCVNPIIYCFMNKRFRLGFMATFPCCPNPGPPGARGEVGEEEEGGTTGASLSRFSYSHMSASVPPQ
Put plainly: CCK1 binding assay ([125I]-BH-CCK-8S displacement, CHO-K1 membranes). Conditions: membranes of CHO-K1 cells stably transfected with the CCK-1 receptor, 20 pM [125I]-BH-CCK-8S, 0.3 μM PD-134,308 present, 60 min at 21±3° C.; for Ki: read-out: CCK1 pKi (converted). The protocol: 1. CCK1 Assay Development and Data Generation
CHO-K1 cells that had undergone stable transfection with the CCK-1 receptor were grown in DMEM supplemented with L-glutamine (2 mM), penicillin (50 units/mL) and streptomycin (50 μg/mL). Cells were cultured under continuous G418 selection (2 mM) and were harvested using a rubber cell scraper. CHO-K1 cells were sub-cultured a maximum of ten times before being reseeded from the original stocks.
Membranes were prepared from the stably transfected CHO-K1 cells. Frozen cell pellets (−40° C.) were thawed in 14 mL of buffer A (10 mM HEPES, 130 mM NaCl, 4.7 mM KCl, 5 mM MgCl, 1 mM EGTA and 15.4 mg/100 mL bacitracin at pH 7.2), adapted from Harper et al. (Br. J. Pharmacol. 1996, 118:1717-1726). The thawed pellets were homogenized using a Polytron PT-10 (7×1 s). The homogenates were centrifuged for 5 min at 1500 rpm (600×g), and the resulting pellets were discarded. The supernatants were re-centrifuged in order to collect the receptor-membrane pellets (25 min 15,000 rpm; 39,800×g), which were re-suspended in buffer A.
All assays were conducted in 96-well plates (GF/B millipore filter plates) using buffer A, with 0.3 μM PD-134,308, for the dilutions. The CCK-2 receptor ligand was included to eliminate the contribution of this receptor subtype to the binding. For the optimal cell number determination experiments 20 pM [^125I]-BH-CCK-8S (50 μL […] solution) was incubated with a range of cell concentrations ([…] to 12.5×10^5 cells/well) in a total volume of 150 μL. Total binding of [^125I]-BH-CCK-8S was determined in the presence of 15 μL of buffer A. Non-specific binding of [^125I]-BH-CCK-8S was determined in the presence of 15 μL of 100 μM 2-naphthalenesulphonyl L-aspartyl-(2-phenethyl)amide (2-NAP: see R. A. Hull et al. Br. J. Pharmacol. 1993, 108:734-740), a CCK-1 receptor selective antagonist that is structurally unrelated to the radioligand [^125I]-BH-CCK-8S. The assay preparation was incubated for 1 h at 21±3° C., and then the assay was terminated upon rapid filtration of the preparation under reduced pressure. The loaded filters were washed three times using undiluted PBS ([…]), and then the residues were transferred to 5 mL scintillation tubes. Bound radioactivity was determined using a gamma counter (count time=1 min). […] To validate the radioligand concentration and incubation time for the assay, saturation and kinetic binding studies were also conducted (see M. F. Morton, The Pharmacological Characterization of Cholecystokinin Receptors in the Human Gastrointestinal Tract. PhD Thesis, University of London, 2000). […] The assay was then terminated according to the procedure outlined above.
(§1) 3. Data Analysis for CCK1 and CCK2 Binding Assays
The pKi values were determined using the equation of Y.-C. Cheng and W. H. Prusoff (Biochem. Pharmacol., 1973, 22(23):3099-3108):
(§2) [formula] To circumvent problems associated with computer-assisted data analysis of compounds with low affinity, the data obtained in the current study were weighted according to a method described by Morton. In brief, 100% and 0% specific binding were defined independently using total binding and binding obtained in the presence of a high concentration of the reference antagonist, 2-NAP.

Another test addresses T2, CCK2 receptor (Homo sapiens, UniProt P32239).
T2 construct: analyzed for ZFP expression as well as CCK2R induction upon addition of doxycycline to the culture medium; endogenous in cells
T2 sequence (P32239 1-447): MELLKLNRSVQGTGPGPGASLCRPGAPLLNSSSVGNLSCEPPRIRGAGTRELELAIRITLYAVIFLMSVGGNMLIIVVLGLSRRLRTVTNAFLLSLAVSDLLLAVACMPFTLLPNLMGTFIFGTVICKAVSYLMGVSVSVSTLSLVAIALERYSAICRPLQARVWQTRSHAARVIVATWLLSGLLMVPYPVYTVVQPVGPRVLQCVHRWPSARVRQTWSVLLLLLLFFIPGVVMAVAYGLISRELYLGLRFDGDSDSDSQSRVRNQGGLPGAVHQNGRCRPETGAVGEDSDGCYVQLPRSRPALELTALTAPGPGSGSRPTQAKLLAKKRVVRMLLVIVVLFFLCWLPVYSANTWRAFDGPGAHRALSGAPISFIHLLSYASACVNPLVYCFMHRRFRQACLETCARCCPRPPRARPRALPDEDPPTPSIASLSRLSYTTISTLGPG
The experiment in a line: CCK2 binding assay ([125I]-BH-CCK-8S displacement, HEKZFP membranes). Conditions: membranes of doxycycline-induced HEKZFP cells; 20 pM [125I]-BH-CCK-8S; 60 min at 21±3° C.; read-out: CCK2 pKi (converted). As to the method:
2. CCK2 Assay Development and Data Generation
Zinc Finger Proteins (ZFP) specific for the CCK2R gene were identified by Sangamo Biosciences. The ZFP domain was fused with the herpes simplex virus VP16 activation domain, and the fusion protein was subsequently cloned into the pcDNA3 mammalian expression vector (Invitrogen, San Diego, Calif.). […] After 2 weeks of selection in culture medium containing […] Zeocin (Invitrogen), sixty drug-resistant stable clones were isolated and analyzed for ZFP expression as well as CCK2R induction upon addition of doxycycline to the culture medium.
HEKZFP cells were grown in DMEM supplemented with L-glutamine (2 mM), penicillin (50 units/mL) and streptomycin (50 μg/mL) and 10% FBS (v/v).
Membranes were prepared from the HEKZFP cells after induction. […] The thawed pellets were homogenized using a Polytron PT-10 (7×1 s). The homogenates were centrifuged for 5 min at 1500 rpm (600×g), and the resulting pellets were discarded. The supernatants were re-centrifuged in order to collect the receptor-membrane pellets (25 min 15,000 rpm; 39,800×g), which were re-suspended in buffer A.
The assay preparation was incubated for 1 h at 21±3° C., and then the assay was terminated by rapid filtration of the preparation under reduced pressure. The loaded filters were washed three times using undiluted PBS (100 μL), and then 100 μL of scintillation fluid was added to the filter plate. Bound radioactivity was determined using a Topcount (Packard BioScience, Meriden, Conn.) with a count time of 1 min. […] To validate the radioligand concentration and incubation time for the assay, saturation and kinetic binding studies were also conducted (see M. F. Morton, The Pharmacological Characterization of Cholecystokinin Receptors in the Human Gastrointestinal Tract. PhD Thesis, University of London, 2000). […] The assay was then terminated according to the procedure outlined above.
as §1
The pKi values were determined using the equation of Y.-C.
as §2

Each structure is given as a SMILES string.

The record followed here is patent US7855292B2, “Sulfonamide compounds” (Janssen Pharmaceutica NV, priority 2004, dated 2010).

For `O=C(NC(C(=O)O)C(O)c1ccc(Cl)c(Cl)c1)c1ccc(Cl)cc1NS(=O)(=O)c1cccc2nsnc12` (mixture of isomers) [Example 19, 2-[2-(Benzo[1,2,5]thiadiazole-4-sulfonylamino)-4-chloro-benzoylamino]-3-(3,4-dichloro-phenyl)-3-hydroxy-propionic acid], the Ki at CCK-1 receptor is 200 nM; on CCK2 receptor it was 251 nM.

With `CC(CNC(=O)c1ccc(Cl)cc1NS(=O)(=O)c1cccc2nsnc12)c1ccc(Cl)cc1` (racemic) [Example 1, (±)-2-(Benzo[1,2,5]thiadiazole-4-sulfonylamino)-4-chloro-N-[2-(4-chloro-phenyl)-propyl]-benzamide], the figures for the Ki at CCK-1 receptor and on CCK2 receptor were 126 nM and 398 nM, respectively. For `CC(CNC(=O)c1ccc(Cl)cc1NS(=O)(=O)c1ccc(F)cc1F)c1ccc(Cl)c(Cl)c1` (racemic) [Example 10, (±)-4-Chloro-N-[2-(3,4-dichloro-phenyl)-propyl]-2-(2,4-difluorobenzenesulfonylamino)-benzamide], in that order: 20 nM and 7940 nM. In the same order, the values of `Cc1ccc(C(=O)NC(CO)Cc2ccc(Cl)cc2)c(NS(=O)(=O)c2cccc3nsnc23)c1` (racemic) [Example 12, (±)-2-(Benzo[1,2,5]thiadiazole-4-sulfonylamino)-N-[2-(4-chloro-phenyl)-1-hydroxymethyl-ethyl]-4-methyl-benzamide] are 1260 nM and 63.1 nM.

Regarding `CC(CNC(=O)c1cc(Cl)ccc1NS(=O)(=O)c1cccc2nsnc12)c1ccc(Cl)c(Cl)c1` (racemic) [Example 16, (±)-2-(Benzo[1,2,5]thiadiazole-4-sulfonylamino)-5-chloro-N-[2-(3,4-dichloro-phenyl)-propyl]-benzamide], the Ki at CCK-1 receptor was 63.1 nM; at CCK2 receptor it was 631 nM. As for `COC(=O)C(NC(=O)c1ccc(Cl)cc1NS(=O)(=O)c1cccc2nccnc12)C(=O)c1ccc(Cl)c(Cl)c1` (racemic) [Example 18, (±)-2-[4-Chloro-2-(quinoxaline-5-sulfonylamino)-benzoylamino]-3-(3,4-dichloro-phenyl)-3-oxo-propionic acid methyl ester], the Ki at CCK-1 receptor was 316 nM; at CCK2 receptor, 1580 nM. In the same order, the values of `O=C(NC(CO)Cc1ccc(Cl)cc1)c1ccc(Cl)cc1NS(=O)(=O)c1cccc2nsnc12` (racemic) [Example 52, (±)-2-(Benzo[1,2,5]thiadiazole-4-sulfonylamino)-4-chloro-N-[2-(4-chloro-phenyl)-1-hydroxymethyl-ethyl]-benzamide] are 501 nM and 100 nM. For `CC(Cc1ccc(Cl)cc1)NC(=O)c1ccc(Br)cc1NS(=O)(=O)c1cccc2nsnc12` (racemic) [Example 53, (±)-2-(Benzo[1,2,5]thiadiazole-4-sulfonylamino)-4-bromo-N-[2-(4-chloro-phenyl)-1-methyl-ethyl]-benzamide], in that order: 126 nM and 2510 nM. In the same order, the values of `Cc1ccc(C(=O)NCC(C)c2ccc(Cl)cc2)c(NS(=O)(=O)c2cccc3nsnc23)c1` (racemic) [Example 54, (±)-2-(Benzo[1,2,5]thiadiazole-4-sulfonylamino)-N-[2-(4-chloro-phenyl)-propyl]-4-methyl-benzamide] are 794 nM and 316 nM.

Turning to `CC(CNC(=O)c1ccc(Cl)cc1NS(=O)(=O)c1cccc2nsnc12)c1ccc(Cl)c(Cl)c1` (racemic) [Example 57, (±)-2-(Benzo[1,2,5]thiadiazole-4-sulfonylamino)-4-chloro-N-[2-(3,4-dichloro-phenyl)-propyl]-benzamide], the Ki was 12.6 nM on CCK-1 receptor and 501 nM on CCK2 receptor.

On to `CC(CNC(=O)c1cc(Cl)c(Cl)cc1NS(=O)(=O)c1cccc2nsnc12)c1ccc(Cl)c(Cl)c1` (racemic) [Example 58, (±)-2-(Benzo[1,2,5]thiadiazole-4-sulfonylamino)-4,5-dichloro-N-[2-(3,4-dichloro-phenyl)-propyl]-benzamide], for which the Ki is 31.6 nM on CCK-1 receptor and 501 nM at CCK2 receptor. For `CC(CNC(=O)c1ccc(Cl)cc1NS(=O)(=O)c1cccc2nccnc12)c1ccc(Cl)c(Cl)c1` (racemic) [Example 59, (±)-4-Chloro-N-[2-(3,4-dichloro-phenyl)-propyl]-2-(quinoxaline-5-sulfonylamino)-benzamide], in that order: 79.4 nM and 794 nM. As to `O=C(N[C@H](Cc1ccc(Cl)c(Cl)c1)C(=O)O)c1ccc(Cl)cc1NS(=O)(=O)c1cccc2nsnc12` [Example 118, (R)-2-[2-(Benzo[1,2,5]thiadiazole-4-sulfonylamino)-4-chloro-benzoylamino]-3-(3,4-dichloro-phenyl)-propionic acid], the “CCK1 pKi” value at CCK-1 receptor is recorded as 7.1.
